Several values for one entry are separate records, joined by “and”; a condition that tells them apart may be missing. Equal values may be shown once. Where a SMILES comes first, the peptide text is derived from it. [ ]: non-standard residue; d: D form. d2Nal = N[C@H](Cc1ccc2ccccc2c1)C(=O)O; Orn = NCCC[C@H](N)C(=O)O
Assays:
Endothelin receptor = target: T1, Endothelin receptor (Rattus norvegicus, UniProt P26684+P21451); experiment: Binding affinity against Endothelin receptor from rat heart ventricle; format: protein assay
T1 sequence (P26684 whole entry): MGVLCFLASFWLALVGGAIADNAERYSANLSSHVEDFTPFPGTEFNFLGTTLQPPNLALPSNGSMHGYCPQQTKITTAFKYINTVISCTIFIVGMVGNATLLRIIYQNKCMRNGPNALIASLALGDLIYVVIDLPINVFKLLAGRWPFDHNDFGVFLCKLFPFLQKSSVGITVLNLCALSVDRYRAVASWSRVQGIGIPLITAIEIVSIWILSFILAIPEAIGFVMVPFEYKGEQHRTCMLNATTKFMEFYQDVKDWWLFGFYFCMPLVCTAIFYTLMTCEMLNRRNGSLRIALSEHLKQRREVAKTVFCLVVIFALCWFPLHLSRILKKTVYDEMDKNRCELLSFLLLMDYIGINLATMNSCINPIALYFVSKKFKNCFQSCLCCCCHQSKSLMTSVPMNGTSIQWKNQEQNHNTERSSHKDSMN
T1 sequence (P21451 whole entry): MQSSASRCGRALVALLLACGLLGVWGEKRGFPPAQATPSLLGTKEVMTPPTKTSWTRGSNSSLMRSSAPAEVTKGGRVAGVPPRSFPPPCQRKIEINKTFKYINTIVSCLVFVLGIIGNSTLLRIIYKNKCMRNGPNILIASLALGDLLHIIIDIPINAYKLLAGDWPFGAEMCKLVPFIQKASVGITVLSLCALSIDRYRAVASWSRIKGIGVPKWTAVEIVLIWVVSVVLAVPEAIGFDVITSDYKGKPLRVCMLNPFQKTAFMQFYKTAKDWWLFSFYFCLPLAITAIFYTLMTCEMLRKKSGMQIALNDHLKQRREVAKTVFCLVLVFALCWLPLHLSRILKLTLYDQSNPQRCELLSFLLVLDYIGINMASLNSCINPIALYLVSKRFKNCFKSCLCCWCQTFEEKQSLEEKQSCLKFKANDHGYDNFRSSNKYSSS

[1] = target: T2, Endothelin receptor type B (Rattus norvegicus, UniProt P21451); experiment: Effective concentration against Endothelin B receptor from rat cerebellum; format: tissue-based
T2 sequence (P21451 whole entry): T1 sequence (P21451 whole entry)

Oryctolagus cuniculus = species: Oryctolagus cuniculus; experiment: Inhibition of ET-1 stimulated arachidonic acid release in rabbit renal artery vascular smooth muscle cells; format: functional

| Molecule | IC50 (Endothelin receptor) | IC50 [1] [nM] | IC50 (Oryctolagus cuniculus) [nM] |
| --- | --- | --- | --- |
| CC[C@H](C)[C@H](NC(=O)[C@H](CC(=O)O)NC(=O)[C@@H](CC(C)C)NC(=O)[C@H](Cc1c[nH]cn1)NC(C)=O)C(=O)N[C@H](C(=O)N[C@@H](Cc1c[nH]c2ccccc12)C(=O)O)[C@@H](C)CC | 39000 nM |  |  |
| CC[C@H](C)[C@H](NC(=O)[C@H](CC(=O)O)NC(=O)[C@H](CC(C)C)NC(=O)[C@H](Cc1c[nH]cn1)NC(C)=O)C(=O)N[C@H](C(=O)N[C@H](Cc1c[nH]c2ccccc12)C(=O)O)[C@@H](C)CC | > 50000 nM |  |  |
| CC[C@H](C)[C@H](NC(=O)[C@H](CC(=O)O)NC(=O)[C@H](CC(C)C)NC(=O)[C@@H](Cc1ccccc1)NC(C)=O)C(=O)N[C@@H](CCC(=O)O)C(=O)N[C@@H](Cc1c[nH]c2ccccc12)C(=O)O | 5200 nM |  |  |
| CC[C@H](C)[C@H](NC(=O)[C@H](CC(=O)O)NC(=O)[C@H](CC(C)C)NC(=O)[C@@H](Cc1c[nH]cn1)NC(C)=O)C(=O)N[C@H](C(=O)N[C@@H](Cc1c[nH]c2ccccc12)C(=O)O)[C@@H](C)CC | 4100 nM and 4500 nM | 9100 |  |
| CC[C@H](C)[C@H](NC(=O)[C@H](CC(=O)O)NC(=O)[C@H](CCC(=O)O)NC(=O)[C@@H](Cc1ccccc1)NC(C)=O)C(=O)N[C@@H](Cc1c[nH]c2ccccc12)C(=O)O | 740 nM | 840 | 600 |
| CC[C@H](C)[C@H](NC(=O)[C@H](CC(=O)O)NC(=O)[C@H](CC(C)C)NC(=O)[C@@H](Cc1ccccc1)NC(C)=O)C(=O)N[C@@H](CCCCN)C(=O)N[C@@H](Cc1c[nH]c2ccccc12)C(=O)O | > 50000 nM |  |  |
| CC[C@H](C)[C@H](NC(=O)[C@H](CCCCN)NC(=O)[C@H](CC(=O)O)NC(=O)[C@H](CC(C)C)NC(=O)[C@@H](Cc1ccccc1)NC(C)=O)C(=O)N[C@@H](Cc1c[nH]c2ccccc12)C(=O)O | > 50000 nM | > 10000 |  |
| CC[C@H](C)[C@H](NC(=O)[C@H](CC(=O)O)NC(=O)[C@H](CC(C)C)NC(=O)[C@H](N)Cc1ccccc1)C(=O)N[C@H](C(=O)N[C@@H](Cc1c[nH]c2ccccc12)C(=O)O)[C@@H](C)CC | 12400 nM | 2600 |  |
| CC[C@H](C)[C@H](NC(=O)[C@H](Cc1ccc(O)cc1)NC(=O)[C@@H](Cc1ccccc1)NC(C)=O)C(=O)N[C@H](C(=O)N[C@@H](Cc1c[nH]c2ccccc12)C(=O)O)[C@@H](C)CC |  | > 10000 |  |
| CC[C@H](C)[C@H](NC(=O)[C@H](CC(=O)O)NC(=O)[C@H](CC(C)C)NC(=O)[C@@H](Cc1ccccc1)NC(C)=O)C(=O)N[C@H](C(=O)N[C@@H](Cc1csc2ccccc12)C(=O)O)[C@@H](C)CC | 3800 nM | 9800 | > 10000 |
| CC[C@@H](C)[C@@H](NC(=O)[C@H](CC(=O)O)NC(=O)[C@H](CC(C)C)NC(=O)[C@H](Cc1c[nH]cn1)NC(C)=O)C(=O)N[C@H](C(=O)N[C@@H](Cc1c[nH]c2ccccc12)C(=O)O)[C@@H](C)CC | 169000 nM |  |  |
| CC[C@H](C)[C@H](NC(=O)[C@H](CCCCN)NC(=O)[C@H](CC(C)C)NC(=O)[C@@H](Cc1ccccc1)NC(C)=O)C(=O)N[C@H](C(=O)N[C@@H](Cc1c[nH]c2ccccc12)C(=O)O)[C@@H](C)CC | 12000 nM | > 10000 |  |
| CC[C@H](C)[C@H](NC(=O)[C@H](CCC(=O)O)NC(=O)[C@H](CC(=O)O)NC(=O)[C@H](CC(C)C)NC(=O)[C@@H](Cc1ccccc1)NC(C)=O)C(=O)N[C@@H](Cc1c[nH]c2ccccc12)C(=O)O | 9000 nM | > 10000 | > 10000 |
| CC[C@H](C)[C@H](NC(=O)[C@H](CC(=O)O)NC(=O)[C@H](CC(C)C)NC(=O)[C@@H](N)Cc1ccccc1)C(=O)N[C@H](C(=O)N[C@@H](Cc1c[nH]c2ccccc12)C(=O)O)[C@@H](C)CC |  | 2600 |  |
| CC[C@H](C)[C@H](NC(=O)[C@H](CC(=O)O)NC(=O)[C@H](CC(C)C)NC(=O)[C@@H](Cc1ccc2ccccc2c1)NC(C)=O)C(=O)N[C@H](C(=O)N[C@@H](Cc1c[nH]c2ccccc12)C(=O)O)[C@@H](C)CC (Ac-[d2Nal]LDIIW-OH) |  |  | 1900 |
| CC[C@H](C)[C@H](NC(=O)[C@@H](Cc1ccccc1)NC(C)=O)C(=O)N[C@@H](Cc1c[nH]c2ccccc12)C(=O)O (Ac-[dF]-Ile-Trp-OH) |  | > 10000 |  |

| Molecule | IC50 (Endothelin receptor) | IC50 [1] [nM] | IC50 (Oryctolagus cuniculus) [nM] |
| --- | --- | --- | --- |
| CC[C@H](C)[C@H](NC(=O)[C@H](CC(=O)O)NC(=O)[C@H](C)NC(=O)[C@@H](Cc1ccccc1)NC(C)=O)C(=O)N[C@H](C(=O)N[C@@H](Cc1c[nH]c2ccccc12)C(=O)O)[C@@H](C)CC (Ac-[dF]ADIIW-OH) | 420 nM | 290 | 330 |
| CC[C@H](C)[C@H](NC(=O)[C@H](Cc1ccccc1)NC(=O)[C@H](CC(=O)O)NC(=O)[C@@H](Cc1ccccc1)NC(C)=O)C(=O)N[C@@H](Cc1c[nH]c2ccccc12)C(=O)O (Ac-[dF]DFIW-OH) |  | 4600 |  |
| CC[C@H](C)[C@H](NC(=O)[C@H](CC(=O)O)NC(=O)[C@@H](Cc1ccccc1)NC(C)=O)C(=O)N[C@H](C(=O)N[C@@H](Cc1c[nH]c2ccccc12)C(=O)O)[C@@H](C)CC (Ac-[dF]DIIW-OH) | 2150 nM |  |  |
| CC[C@H](C)[C@H](NC(=O)[C@@H](NC(=O)[C@@H](Cc1ccccc1)NC(C)=O)[C@@H](C)CC)C(=O)N[C@@H](Cc1c[nH]c2ccccc12)C(=O)O (Ac-[dF]IIW-OH) |  | > 10000 |  |
| CC[C@H](C)[C@H](NC(=O)[C@H](C)NC(=O)[C@H](CC(=O)O)NC(=O)[C@H](CC(C)C)NC(=O)[C@@H](Cc1ccccc1)NC(C)=O)C(=O)N[C@@H](Cc1c[nH]c2ccccc12)C(=O)O (Ac-[dF]LDAIW-OH) | 1610 nM | 450 | 1500 |
| CC[C@H](C)[C@H](NC(=O)[C@H](CC(=O)O)NC(=O)[C@H](CC(C)C)NC(=O)[C@@H](Cc1ccccc1)NC(C)=O)C(=O)N[C@@H](C)C(=O)N[C@@H](Cc1c[nH]c2ccccc12)C(=O)O (Ac-[dF]LDIAW-OH) | 6830 nM | > 10000 | > 10000 |
| CC[C@H](C)[C@H](NC(=O)[C@H](CC(=O)O)NC(=O)[C@H](CC(C)C)NC(=O)[C@@H](Cc1ccccc1)NC(C)=O)C(=O)N[C@H](C(=O)N[C@@H](Cc1c[nH]c2ccccc12)C(=O)O)[C@@H](C)CC (Ac-[dF]LDIIW-OH) | 740 nM | 2000 |  |
| CC[C@H](C)[C@H](NC(=O)[C@H](CC(=O)O)NC(=O)[C@H](CC(C)C)NC(=O)[C@@H](Cc1ccccc1)NC(C)=O)C(=O)N[C@H](C(=O)N[C@@H](Cc1ccc(O)cc1)C(=O)O)[C@@H](C)CC (Ac-[dF]LDIIY-OH) |  | 150 |  |
| CC[C@H](C)[C@H](NC(=O)[C@H](CC(=O)O)NC(=O)[C@H](CC(C)C)NC(=O)[C@@H](Cc1ccccc1)NC(C)=O)C(=O)N[C@@H](Cc1c[nH]c2ccccc12)C(=O)O (Ac-[dF]LDIW-OH) | 24500 nM | > 10000 |  |
| CC[C@H](C)[C@H](NC(=O)[C@H](Cc1ccccc1)NC(=O)[C@H](CC(C)C)NC(=O)[C@@H](Cc1ccccc1)NC(C)=O)C(=O)N[C@H](C(=O)N[C@@H](Cc1c[nH]c2ccccc12)C(=O)O)[C@@H](C)CC (Ac-[dF]LFIIW-OH) | 380 nM | 36 |  |
| CC[C@H](C)[C@H](NC(=O)[C@H](CC(=O)O)NC(=O)[C@H](CCCN)NC(=O)[C@@H](Cc1ccccc1)NC(C)=O)C(=O)N[C@H](C(=O)N[C@@H](Cc1c[nH]c2ccccc12)C(=O)O)[C@@H](C)CC (Ac-[dF][Orn]DIIW-OH) | 680 nM | 2450 |  |
| CC[C@H](C)[C@H](NC(=O)[C@H](CC(=O)O)NC(=O)[C@H](CC(C)C)NC(=O)[C@@H](Cc1ccc(O)cc1)NC(C)=O)C(=O)N[C@H](C(=O)N[C@@H](Cc1c[nH]c2ccccc12)C(=O)O)[C@@H](C)CC (Ac-[dY]LDIIW-OH) |  | 7000 | 250 |
| CC[C@H](C)[C@H](NC(=O)[C@H](CC(=O)O)NC(=O)[C@H](CC(C)C)NC(=O)[C@@H](Cc1ccccc1)NC(C)=O)C(=O)N[C@H](C(=O)NC(Cc1cnc[nH]1)C(=O)O)[C@@H](C)CC (mixture of isomers) |  | > 10000 |  |
| CC[C@H](C)[C@H](NC(=O)[C@H](CC(=O)O)NC(=O)[C@H](Cc1ccccc1)NC(=O)[C@@H](Cc1ccccc1)NC(C)=O)C(=O)N[C@H](C(=O)N[C@@H](Cc1c[nH]c2ccccc12)C(=O)O)[C@@H](C)CC (stereo in doubt; 20) | 330 nM | 60 |  |
| CC[C@H](C)[C@H](NC(=O)[C@H](CC(=O)O)NC(=O)[C@H](Cc1ccccc1)NC(=O)[C@@H](Cc1ccccc1)NC(C)=O)C(=O)N[C@H](C(=O)N[C@@H](Cc1c[nH]c2ccccc12)C(=O)O)[C@@H](C)CC (stereo in doubt; 21) |  | 20 | 2200 |
| Ac-FLDIIW-OH |  | 18500 |  |
